Laboratory results reported in PubChem BioAssay (NCI).
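Cultured in 96-well plates, cells were exposed to test compound for 48 hours across five concentrations. Definition used: TGI = concentration required for complete inhibition of growth.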

How the values were obtained:
Experiment in all cases: NCI tumour cell line growth inhibition, 48 h
LXFL 529 NSCLC = test system: LXFL 529 NSCLC
NCI-H23 lung = test system: NCI-H23 lung
SF-295 CNS = test system: SF-295 CNS
M14 melanoma = test system: M14 melanoma
ACHN renal = test system: ACHN renal
SNB-78 CNS = test system: SNB-78 CNS
NCI-H522 lung = test system: NCI-H522 lung
UACC-62 melanoma = test system: UACC-62 melanoma
HT29 colon = test system: HT29 colon
SK-OV-3 ovarian = test system: SK-OV-3 ovarian
NCI-H460 lung = test system: NCI-H460 lung
HL-60(TB) leukemia = test system: HL-60(TB) leukemia
RPMI-8226 leukemia = test system: RPMI-8226 leukemia
HOP-92 NSCLC = test system: HOP-92 NSCLC
UO-31 renal = test system: UO-31 renal
COLO 205 colon = test system: COLO 205 colon
DMS 114 small cell lung = test system: DMS 114 small cell lung
HCC-2998 colon = test system: HCC-2998 colon
KM20L2 colon = test system: KM20L2 colon
SK-MEL-2 melanoma = test system: SK-MEL-2 melanoma
SNB-75 CNS = test system: SNB-75 CNS
OVCAR-4 ovarian = test system: OVCAR-4 ovarian
M19-MEL melanoma = test system: M19-MEL melanoma
OVCAR-5 ovarian = test system: OVCAR-5 ovarian
IGROV1 ovarian = test system: IGROV1 ovarian
SR leukemia = test system: SR leukemia
KM12 colon = test system: KM12 colon
OVCAR-3 ovarian = test system: OVCAR-3 ovarian
MOLT-4 leukemia = test system: MOLT-4 leukemia
HCT-116 colon = test system: HCT-116 colon
HOP-62 NSCLC = test system: HOP-62 NSCLC
SK-MEL-28 melanoma = test system: SK-MEL-28 melanoma
SF-268 CNS = test system: SF-268 CNS
SF-539 CNS = test system: SF-539 CNS
U251 CNS = test system: U251 CNS
UACC-257 melanoma = test system: UACC-257 melanoma
A549 NSCLC = test system: A549 NSCLC
A498 renal = test system: A498 renal
MDA-N = test system: MDA-N
SW-620 colon = test system: SW-620 colon
SK-MEL-5 melanoma = test system: SK-MEL-5 melanoma
HS 578T breast = test system: HS 578T breast
MDA-MB-231 breast = test system: MDA-MB-231 breast
CCRF-CEM leukemia = test system: CCRF-CEM leukemia
MALME-3M melanoma = test system: MALME-3M melanoma
TK-10 renal = test system: TK-10 renal
K-562 leukemia = test system: K-562 leukemia
NCI/ADR-RES ovarian = test system: NCI/ADR-RES ovarian
PC-3 prostate = test system: PC-3 prostate
MDA-MB-435 = test system: MDA-MB-435
786-0 renal = test system: 786-0 renal
RXF 393 renal = test system: RXF 393 renal
LOX IMVI melanoma = test system: LOX IMVI melanoma
BT-549 breast = test system: BT-549 breast
DU-145 prostate = test system: DU-145 prostate
NCI-H226 lung = test system: NCI-H226 lung
SN12C renal = test system: SN12C renal
HCT-15 colon = test system: HCT-15 colon
SNB-19 CNS = test system: SNB-19 CNS
T-47D breast = test system: T-47D breast
MCF7 breast = test system: MCF7 breast

With `Cc1cnc2cc(Cl)ccc2c1NCCN(CC(C)C)CC(C)C` the TGI (LXFL 529 NSCLC) was over 100 µM, the TGI (NCI-H23 lung) was over 100 µM and the TGI (SF-295 CNS) was over 100 µM. The TGI (M14 melanoma) was over 100 µM, the TGI (ACHN renal) was over 100 µM and the TGI (SNB-78 CNS) was over 100 µM. The TGI (NCI-H522 lung) was over 100 µM, the TGI (UACC-62 melanoma) was over 100 µM and the TGI (HT29 colon) was over 100 µM. It also gave a TGI (SK-OV-3 ovarian) of over 100 µM, a TGI (NCI-H460 lung) of over 100 µM and a TGI (HL-60(TB) leukemia) of over 100 µM. For the same compound, the TGI (RPMI-8226 leukemia) was over 100 µM, the TGI (HOP-92 NSCLC) was 85.3 µM and the TGI (UO-31 renal) was over 100 µM. The TGI (COLO 205 colon) was over 100 µM, the TGI (DMS 114 small cell lung) was over 100 µM and the TGI (HCC-2998 colon) was over 100 µM. It also gave a TGI (KM20L2 colon) of over 100 µM, a TGI (SK-MEL-2 melanoma) of over 100 µM and a TGI (SNB-75 CNS) of over 100 µM. The TGI (OVCAR-4 ovarian) was over 100 µM, the TGI (M19-MEL melanoma) was over 100 µM and the TGI (OVCAR-5 ovarian) was over 100 µM. It also gave a TGI (IGROV1 ovarian) of over 100 µM, a TGI (SR leukemia) of over 100 µM and a TGI (KM12 colon) of over 100 µM. It also gave a TGI (OVCAR-3 ovarian) of over 100 µM, a TGI (MOLT-4 leukemia) of over 100 µM and a TGI (HCT-116 colon) of over 100 µM. For the same compound, the TGI (HOP-62 NSCLC) was over 100 µM, the TGI (SK-MEL-28 melanoma) was over 100 µM and the TGI (SF-268 CNS) was over 100 µM. It also gave a TGI (SF-539 CNS) of over 100 µM, a TGI (U251 CNS) of over 100 µM and a TGI (UACC-257 melanoma) of over 100 µM.
For `Clc1ccc(-c2cn3c(nc4ccccc43)c(/C=C/c3cccs3)n2)cc1`, the TGI (A549 NSCLC) was over 100 µM, the TGI (A498 renal) was over 100 µM and the TGI (MDA-N) was over 100 µM. For the same compound, the TGI (SW-620 colon) was over 100 µM, the TGI (SK-MEL-5 melanoma) was over 100 µM and the TGI (NCI-H23 lung) was over 100 µM. The TGI (M14 melanoma) was over 100 µM, the TGI (ACHN renal) was over 100 µM and the TGI (HS 578T breast) was over 100 µM. The TGI (MDA-MB-231 breast) was over 100 µM, the TGI (UACC-62 melanoma) was over 100 µM and the TGI (CCRF-CEM leukemia) was over 100 µM. The TGI (MALME-3M melanoma) was over 100 µM, the TGI (TK-10 renal) was over 100 µM and the TGI (HT29 colon) was over 100 µM. For the same compound, the TGI (SK-OV-3 ovarian) was over 100 µM, the TGI (K-562 leukemia) was over 100 µM and the TGI (NCI/ADR-RES ovarian) was over 100 µM. The TGI (NCI-H460 lung) was over 100 µM, the TGI (PC-3 prostate) was over 100 µM and the TGI (HL-60(TB) leukemia) was over 100 µM. For the same compound, the TGI (RPMI-8226 leukemia) was over 100 µM, the TGI (MDA-MB-435) was over 100 µM and the TGI (786-0 renal) was over 100 µM. The TGI (HOP-92 NSCLC) was over 100 µM, the TGI (UO-31 renal) was over 100 µM and the TGI (COLO 205 colon) was over 100 µM. The TGI (HCC-2998 colon) was over 100 µM, the TGI (RXF 393 renal) was over 100 µM and the TGI (SK-MEL-2 melanoma) was over 100 µM. For the same compound, the TGI (SNB-75 CNS) was over 100 µM, the TGI (LOX IMVI melanoma) was over 100 µM and the TGI (OVCAR-4 ovarian) was over 100 µM. It also gave a TGI (OVCAR-5 ovarian) of over 100 µM, a TGI (IGROV1 ovarian) of over 100 µM and a TGI (SR leukemia) of over 100 µM. The TGI (KM12 colon) was over 100 µM, the TGI (OVCAR-3 ovarian) was over 100 µM and the TGI (BT-549 breast) was over 100 µM. It also gave a TGI (HCT-116 colon) of over 100 µM, a TGI (DU-145 prostate) of over 100 µM and a TGI (NCI-H226 lung) of over 100 µM. The TGI (HOP-62 NSCLC) was over 100 µM, the TGI (SN12C renal) was over 100 µM and the TGI (SK-MEL-28 melanoma) was over 100 µM. For the same compound, the TGI (SF-268 CNS) was over 100 µM, the TGI (HCT-15 colon) was over 100 µM and the TGI (SF-539 CNS) was over 100 µM. It also gave a TGI (U251 CNS) of over 100 µM, a TGI (SNB-19 CNS) of over 100 µM and a TGI (UACC-257 melanoma) of over 100 µM. For the same compound, the TGI (T-47D breast) was over 100 µM and the TGI (MCF7 breast) was over 100 µM.
